Results published in ChEMBL document CHEMBL1201862, “PubChem BioAssay data set” (2004).
Active and inactive are the calls of the source.

Experiments:
Protein Tat = Protein Tat (Human immunodeficiency virus type 1 group M subtype B (isolate HXB2)(HIV-1), UniProt P04608); type: functional;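 also: tat binding to TAR RNA read out by fluorescence polarization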
cells [1] = type: functional, cell-based
cells [2] = type: functional, cell-based; remark: listed apart in the source
[3] = inhibitors of Vif binding to APOBEC3G peptide, primary screen, biochemical, TR-FRET, GST-Vif 1-94, biotin-A3G peptide, dose response retest (AID 1117319); type: functional;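 also: TR-FRET signal of purified GST-Vif binding a biotinylated A3G peptide; inhibitors lower the FRET signal by blocking Vif and A3G binding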
[4] = Vero cell cytotoxicity, dose response, cytotoxicity control for Vif-APOBEC3G degradation inhibitor project, Vero cells (AID 1117358); type: functional; conditions: Human immunodeficiency virus 1, Vero
Nonstructural protein 1 = Nonstructural protein 1 (Influenza A virus, UniProt Q194T2); type: functional, Influenza A virus (A/California/07/2009(H1N1))
Sequence of Nonstructural protein 1 (Q194T2 whole entry): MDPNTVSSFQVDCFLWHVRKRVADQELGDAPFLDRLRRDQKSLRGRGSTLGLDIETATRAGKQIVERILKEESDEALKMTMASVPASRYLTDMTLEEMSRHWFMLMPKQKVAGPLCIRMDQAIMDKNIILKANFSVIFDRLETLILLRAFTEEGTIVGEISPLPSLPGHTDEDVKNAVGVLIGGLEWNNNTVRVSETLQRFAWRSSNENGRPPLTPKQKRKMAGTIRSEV

Prothrombin = Prothrombin (Bos taurus, UniProt P00735); test: thrombin inhibition, dose response, biochemical, fluorescence polarization, uHTS hits (AID 602369); type: functional
[5] = target: T1, Replicative DNA helicase DnaB (Mycobacterium tuberculosis, UniProt P9WMR3); test: DnaB intein splicing inhibitors, dose response, biochemical, cell-free fluorescence (AID 449749); type: functional
T1 sequence (P9WMR3 whole entry): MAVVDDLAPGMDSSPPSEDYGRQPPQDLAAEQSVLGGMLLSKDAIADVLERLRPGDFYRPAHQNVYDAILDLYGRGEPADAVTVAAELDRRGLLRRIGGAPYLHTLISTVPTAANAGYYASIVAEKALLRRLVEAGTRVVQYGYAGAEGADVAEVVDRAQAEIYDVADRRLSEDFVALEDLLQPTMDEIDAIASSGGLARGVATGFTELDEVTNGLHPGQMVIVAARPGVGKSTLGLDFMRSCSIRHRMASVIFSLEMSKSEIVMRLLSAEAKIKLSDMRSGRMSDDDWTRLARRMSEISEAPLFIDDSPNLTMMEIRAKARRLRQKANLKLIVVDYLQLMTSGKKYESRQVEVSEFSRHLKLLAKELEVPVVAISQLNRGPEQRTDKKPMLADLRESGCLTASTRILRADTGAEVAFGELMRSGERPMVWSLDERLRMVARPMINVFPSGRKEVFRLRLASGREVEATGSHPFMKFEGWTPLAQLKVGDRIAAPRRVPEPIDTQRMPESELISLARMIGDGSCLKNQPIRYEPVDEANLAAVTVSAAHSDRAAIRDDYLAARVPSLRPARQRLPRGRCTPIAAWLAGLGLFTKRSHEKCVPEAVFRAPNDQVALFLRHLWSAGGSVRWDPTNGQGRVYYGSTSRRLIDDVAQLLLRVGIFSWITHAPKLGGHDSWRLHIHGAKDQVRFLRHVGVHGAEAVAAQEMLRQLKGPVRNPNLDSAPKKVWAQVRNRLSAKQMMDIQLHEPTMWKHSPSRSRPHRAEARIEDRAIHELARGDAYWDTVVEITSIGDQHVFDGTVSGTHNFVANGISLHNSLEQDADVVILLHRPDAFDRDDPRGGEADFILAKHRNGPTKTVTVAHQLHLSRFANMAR

Aminopeptidase N = target: T2, Aminopeptidase N (Plasmodium falciparum FcB1/Columbia, UniProt O96935); test: P. falciparum M1AAP inhibitors, biochemical, fluorogenic H-Leu-NHMec substrate, 1536-well (AID 1445); set-up: species or system Plasmodium falciparum 3D7, 3D7
T2 sequence (O96935 whole entry): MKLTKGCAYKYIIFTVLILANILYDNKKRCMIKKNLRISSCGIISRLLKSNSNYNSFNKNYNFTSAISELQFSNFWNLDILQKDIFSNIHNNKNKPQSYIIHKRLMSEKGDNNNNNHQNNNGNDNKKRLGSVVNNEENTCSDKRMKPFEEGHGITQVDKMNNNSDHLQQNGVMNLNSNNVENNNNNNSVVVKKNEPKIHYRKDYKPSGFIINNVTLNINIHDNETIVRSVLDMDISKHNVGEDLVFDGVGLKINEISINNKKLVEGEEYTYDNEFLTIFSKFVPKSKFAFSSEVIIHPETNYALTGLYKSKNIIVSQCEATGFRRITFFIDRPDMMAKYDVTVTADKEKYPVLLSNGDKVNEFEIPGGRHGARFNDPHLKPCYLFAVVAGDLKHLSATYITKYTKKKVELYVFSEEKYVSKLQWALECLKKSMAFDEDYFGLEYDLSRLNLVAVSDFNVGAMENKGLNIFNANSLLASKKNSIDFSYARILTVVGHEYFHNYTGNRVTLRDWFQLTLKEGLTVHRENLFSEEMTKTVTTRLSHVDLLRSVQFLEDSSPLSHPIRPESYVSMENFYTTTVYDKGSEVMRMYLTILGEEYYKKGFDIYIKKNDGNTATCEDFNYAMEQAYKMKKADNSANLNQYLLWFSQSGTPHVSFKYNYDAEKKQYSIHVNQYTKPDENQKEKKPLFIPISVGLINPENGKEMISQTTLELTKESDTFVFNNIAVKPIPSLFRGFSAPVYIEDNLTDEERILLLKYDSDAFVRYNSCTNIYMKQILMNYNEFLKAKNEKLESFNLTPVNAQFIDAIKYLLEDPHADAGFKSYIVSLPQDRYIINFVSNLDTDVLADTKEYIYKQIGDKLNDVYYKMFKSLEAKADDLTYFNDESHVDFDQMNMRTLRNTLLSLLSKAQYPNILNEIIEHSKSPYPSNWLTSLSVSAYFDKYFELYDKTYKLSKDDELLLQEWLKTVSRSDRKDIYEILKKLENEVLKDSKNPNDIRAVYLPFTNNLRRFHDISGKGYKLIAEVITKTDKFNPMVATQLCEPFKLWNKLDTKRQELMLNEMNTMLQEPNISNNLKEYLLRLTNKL

Large T antigen = Large T antigen (Simian virus 40, UniProt P03070); type: functional, Betapolyomavirus macacae;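 also: Confirmatory-stage PubChem screen for compounds that inhibit SV40 T antigen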
Sequence of Large T antigen (P03070 whole entry): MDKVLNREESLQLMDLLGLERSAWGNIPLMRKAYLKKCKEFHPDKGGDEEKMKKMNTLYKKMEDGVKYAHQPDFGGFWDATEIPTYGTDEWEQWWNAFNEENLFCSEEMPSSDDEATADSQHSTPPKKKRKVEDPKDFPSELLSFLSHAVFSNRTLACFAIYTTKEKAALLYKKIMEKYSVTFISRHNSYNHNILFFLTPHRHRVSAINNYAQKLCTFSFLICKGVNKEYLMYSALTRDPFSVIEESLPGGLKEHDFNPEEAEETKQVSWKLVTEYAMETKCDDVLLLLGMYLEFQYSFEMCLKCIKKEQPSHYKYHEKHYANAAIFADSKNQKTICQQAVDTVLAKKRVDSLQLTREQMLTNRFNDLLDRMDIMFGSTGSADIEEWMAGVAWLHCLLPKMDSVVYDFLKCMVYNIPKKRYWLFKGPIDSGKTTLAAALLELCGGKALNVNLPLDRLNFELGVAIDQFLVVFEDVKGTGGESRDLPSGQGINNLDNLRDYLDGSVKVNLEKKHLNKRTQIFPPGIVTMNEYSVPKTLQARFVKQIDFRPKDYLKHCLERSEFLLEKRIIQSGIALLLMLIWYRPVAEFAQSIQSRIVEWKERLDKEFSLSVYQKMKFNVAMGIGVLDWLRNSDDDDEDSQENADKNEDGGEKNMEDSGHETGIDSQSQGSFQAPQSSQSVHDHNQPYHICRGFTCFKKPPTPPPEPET

Protein RecA = target: T3, Protein RecA (Mycobacterium tuberculosis, UniProt P9WHJ3); test: Fluorescence Cell-Free Homogeneous Dose Retest to Identify Inhibitors of RecA-Intein Splicing Activity. [Related pubchem assays (depositor defined):AID2097, AID2223, AID489010, AID492950]; type: functional
T3 sequence (P9WHJ3 whole entry): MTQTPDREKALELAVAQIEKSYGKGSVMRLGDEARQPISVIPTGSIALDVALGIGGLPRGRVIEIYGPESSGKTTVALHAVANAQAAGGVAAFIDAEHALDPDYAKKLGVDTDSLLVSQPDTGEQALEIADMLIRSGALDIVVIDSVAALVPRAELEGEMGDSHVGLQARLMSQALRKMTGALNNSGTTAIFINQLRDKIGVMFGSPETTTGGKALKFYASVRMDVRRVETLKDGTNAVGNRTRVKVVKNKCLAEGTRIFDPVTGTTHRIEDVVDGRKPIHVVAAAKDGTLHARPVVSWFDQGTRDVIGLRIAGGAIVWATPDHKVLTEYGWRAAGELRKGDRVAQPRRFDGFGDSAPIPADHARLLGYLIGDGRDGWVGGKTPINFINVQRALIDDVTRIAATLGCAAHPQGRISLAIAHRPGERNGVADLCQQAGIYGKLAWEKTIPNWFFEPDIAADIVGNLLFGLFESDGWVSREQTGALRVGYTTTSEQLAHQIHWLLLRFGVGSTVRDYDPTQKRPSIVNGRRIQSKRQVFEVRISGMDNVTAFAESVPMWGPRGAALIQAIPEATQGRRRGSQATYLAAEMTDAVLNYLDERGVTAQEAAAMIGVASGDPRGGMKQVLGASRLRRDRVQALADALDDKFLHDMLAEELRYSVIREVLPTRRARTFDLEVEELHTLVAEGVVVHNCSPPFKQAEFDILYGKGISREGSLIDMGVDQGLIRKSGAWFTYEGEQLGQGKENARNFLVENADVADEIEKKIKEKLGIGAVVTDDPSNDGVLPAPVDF

[6] = target: 72 kDa type IV collagenase (Homo sapiens, UniProt P08253); test: Dose Response validation of uHTS RPN11 inhibitor hits using a MMP-2 Fluorescence assay.; type: functional
Sequence of 72 kDa type IV collagenase (P08253 whole entry): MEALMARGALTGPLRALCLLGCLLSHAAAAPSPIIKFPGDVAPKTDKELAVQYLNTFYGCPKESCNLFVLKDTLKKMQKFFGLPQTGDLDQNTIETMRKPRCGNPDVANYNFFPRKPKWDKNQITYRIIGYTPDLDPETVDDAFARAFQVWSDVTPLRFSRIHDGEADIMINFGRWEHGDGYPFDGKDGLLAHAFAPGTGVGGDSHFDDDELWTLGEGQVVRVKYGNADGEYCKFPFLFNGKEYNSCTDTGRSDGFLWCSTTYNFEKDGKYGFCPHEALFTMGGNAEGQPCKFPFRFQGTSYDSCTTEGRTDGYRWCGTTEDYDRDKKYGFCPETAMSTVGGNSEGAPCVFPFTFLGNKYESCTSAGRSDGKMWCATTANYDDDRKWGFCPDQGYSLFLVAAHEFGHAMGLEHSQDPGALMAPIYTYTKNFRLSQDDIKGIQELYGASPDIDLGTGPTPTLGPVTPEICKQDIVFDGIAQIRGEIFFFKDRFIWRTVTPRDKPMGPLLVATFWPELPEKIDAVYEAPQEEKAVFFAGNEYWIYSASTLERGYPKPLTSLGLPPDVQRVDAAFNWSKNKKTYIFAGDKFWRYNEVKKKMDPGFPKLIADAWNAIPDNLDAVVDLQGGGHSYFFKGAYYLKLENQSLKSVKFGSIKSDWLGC

[7] = target: Matrix metalloproteinase-14 (Homo sapiens, UniProt P50281); test: Dose Response confirmation of uHTS hits for a small molecule inhibitors of MT1-MMP activation in a fluorescence assay set 1.; type: functional
[8] = target: 26S proteasome non-ATPase regulatory subunit 14 (Homo sapiens, UniProt O00487); test: inhibition of proteasome subunit RPN11 – biochemical, fluorescence polarization, uHTS hits, confirmation (AID 602368); type: functional
Sequence of 26S proteasome non-ATPase regulatory subunit 14 (O00487 whole entry): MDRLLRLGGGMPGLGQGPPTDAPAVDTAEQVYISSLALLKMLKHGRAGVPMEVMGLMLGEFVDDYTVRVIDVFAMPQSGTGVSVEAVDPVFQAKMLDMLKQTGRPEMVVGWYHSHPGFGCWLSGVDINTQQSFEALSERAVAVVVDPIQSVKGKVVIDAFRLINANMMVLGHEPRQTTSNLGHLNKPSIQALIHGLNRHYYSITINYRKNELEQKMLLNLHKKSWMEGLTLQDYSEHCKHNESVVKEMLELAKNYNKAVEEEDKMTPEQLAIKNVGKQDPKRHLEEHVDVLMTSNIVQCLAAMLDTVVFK

[9] = THP-1 cell cytotoxicity, dose response, cytotoxicity control for Vif-APOBEC3G degradation inhibitor project, THP-1 cells (AID 1117359); type: functional; conditions: Human immunodeficiency virus 1, THP-1
[10] = HepG2 cell cytotoxicity, dose response, cytotoxicity control, ATP luminescence, dry powder, set 2 (AID 743129); type: functional, cell-based
Cryptococcus neoformans = test: PubChem AID 686997; type: functional, organism-based
[11] = target: T4, Low molecular weight phosphotyrosine protein phosphatase (Homo sapiens, UniProt P24666); test: LMPTP phosphatase inhibitors, colorimetric pNPP readout, dose response, orthogonal assay, biochemical, absorbance, pNPP substrate, LMPTP-A isoform, set 2 (AID 743308); type: functional
T4 sequence (P24666 whole entry): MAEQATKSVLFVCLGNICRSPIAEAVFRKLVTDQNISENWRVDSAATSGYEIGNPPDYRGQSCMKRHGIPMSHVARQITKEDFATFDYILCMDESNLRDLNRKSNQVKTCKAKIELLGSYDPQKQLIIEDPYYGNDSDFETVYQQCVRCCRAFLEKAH

[12] = target: T4, Low molecular weight phosphotyrosine protein phosphatase; test: LMPTP phosphatase inhibitors, dose response, biochemical, OMFP substrate, fluorescence intensity, set 2 (AID 743307); type: functional
[13] = target: T5, Rac GTPase-activating protein 1 (Homo sapiens, UniProt Q9H0H5); test: MgcRacGAP GTPase-activating activity inhibitors, confirmation, biochemical, ADP Hunter fluorescence, primary and confirmatory (AID 624330); type: functional
T5 sequence (Q9H0H5 whole entry): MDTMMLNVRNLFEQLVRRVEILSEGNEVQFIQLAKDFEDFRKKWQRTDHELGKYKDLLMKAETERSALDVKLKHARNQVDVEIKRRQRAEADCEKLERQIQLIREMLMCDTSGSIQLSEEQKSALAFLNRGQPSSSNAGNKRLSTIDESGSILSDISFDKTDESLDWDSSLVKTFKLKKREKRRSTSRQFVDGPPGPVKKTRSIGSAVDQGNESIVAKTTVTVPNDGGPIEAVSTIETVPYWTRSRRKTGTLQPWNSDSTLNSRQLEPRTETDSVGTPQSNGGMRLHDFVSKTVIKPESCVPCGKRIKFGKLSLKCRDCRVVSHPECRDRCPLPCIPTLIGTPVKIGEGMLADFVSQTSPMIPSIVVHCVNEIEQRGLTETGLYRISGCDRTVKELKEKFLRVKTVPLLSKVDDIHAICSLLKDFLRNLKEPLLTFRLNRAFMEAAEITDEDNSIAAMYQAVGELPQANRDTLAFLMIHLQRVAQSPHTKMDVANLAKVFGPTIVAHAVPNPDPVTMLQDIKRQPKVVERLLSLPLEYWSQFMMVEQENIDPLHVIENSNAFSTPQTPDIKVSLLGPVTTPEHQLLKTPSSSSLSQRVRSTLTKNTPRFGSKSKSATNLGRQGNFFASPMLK

[14] = target: T6, Sentrin-specific protease 1 (Homo sapiens, UniProt Q9P0U3); test: Dose response confirmation of small molecule inhibitors of the catalytic domain of the SUMO protease, SENP1 in a FRET assay.; type: functional; conditions: read-out: IC50_Mean
T6 sequence (Q9P0U3 whole entry, the tested form may be a part): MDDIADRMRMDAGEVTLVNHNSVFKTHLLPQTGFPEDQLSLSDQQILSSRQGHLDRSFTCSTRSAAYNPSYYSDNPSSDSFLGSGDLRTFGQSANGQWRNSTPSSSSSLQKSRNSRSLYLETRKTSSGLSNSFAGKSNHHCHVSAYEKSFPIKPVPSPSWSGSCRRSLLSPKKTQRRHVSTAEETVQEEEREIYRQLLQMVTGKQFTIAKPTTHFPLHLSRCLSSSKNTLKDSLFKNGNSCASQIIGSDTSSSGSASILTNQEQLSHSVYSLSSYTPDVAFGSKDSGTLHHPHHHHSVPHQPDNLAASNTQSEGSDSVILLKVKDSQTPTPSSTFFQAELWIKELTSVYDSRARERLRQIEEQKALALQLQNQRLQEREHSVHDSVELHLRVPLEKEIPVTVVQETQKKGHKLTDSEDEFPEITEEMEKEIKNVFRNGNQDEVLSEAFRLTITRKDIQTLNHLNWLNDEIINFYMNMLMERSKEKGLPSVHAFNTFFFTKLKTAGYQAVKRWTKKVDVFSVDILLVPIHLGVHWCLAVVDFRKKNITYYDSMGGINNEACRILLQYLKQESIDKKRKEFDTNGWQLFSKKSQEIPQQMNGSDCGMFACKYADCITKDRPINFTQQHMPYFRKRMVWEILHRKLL

[15] = target: Dual specificity tyrosine-phosphorylation-regulated kinase 1A (Rattus norvegicus, UniProt Q63470); type: biochemical, Homo sapiens
[16] = target: T7, DNA repair protein RAD52 homolog (Homo sapiens, UniProt P43351); type: functional, biochemical
T7 sequence (P43351 whole entry): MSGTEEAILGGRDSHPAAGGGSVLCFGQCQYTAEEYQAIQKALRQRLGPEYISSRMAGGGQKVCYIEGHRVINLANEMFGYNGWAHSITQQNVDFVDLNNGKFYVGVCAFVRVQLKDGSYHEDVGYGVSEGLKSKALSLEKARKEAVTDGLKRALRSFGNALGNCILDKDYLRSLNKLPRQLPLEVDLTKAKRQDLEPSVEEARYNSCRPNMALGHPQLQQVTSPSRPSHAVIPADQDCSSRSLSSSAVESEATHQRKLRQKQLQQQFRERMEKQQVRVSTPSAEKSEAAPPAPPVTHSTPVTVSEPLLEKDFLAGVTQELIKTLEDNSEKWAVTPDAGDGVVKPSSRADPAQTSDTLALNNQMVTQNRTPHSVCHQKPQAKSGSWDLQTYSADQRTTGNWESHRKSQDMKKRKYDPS

[17] = HeLa cell cytotoxicity, dose response, cytotoxicity control for MgcRacGAP inhibitor project (AID 624300); type: functional
[18] = target: T6, Sentrin-specific protease 1; test: potency of human SENP1 inhibitors, dose response, biochemical, kinetic FRET (AID 651697); type: functional; conditions: read-out: IC50_Mean
Transthyretin = Transthyretin (Homo sapiens, UniProt P02766); test: Luminescence-based cell-based high throughput dose response assay to identify activators of Transthyretin (TTR) transcription.; type: functional

Sequence of Protein Tat (P04608 whole entry): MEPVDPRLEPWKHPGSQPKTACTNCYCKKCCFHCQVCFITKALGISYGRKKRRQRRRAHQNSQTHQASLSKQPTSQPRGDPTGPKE

COC(=O)/C(=C(/F)SCC(C)=O)C(F)(F)F
IC50 (Protein Tat): > 100 µM (active) | EC50 (cells [1]): > 350 µM (not active) | EC50 (cells [2]): > 350 µM (not active)

CCCNC(=O)c1ccc2c(c1)C1C3CCC(C3)C1C(c1ccccc1)N2 (stereo unspecified)
IC50 [3]: > 100 µM (active) | CC50 [4]: > 40 µM (active)

CCN(CC)c1ccc(/C=C2\C(=O)N(c3nnc(C)c(O)n3)N=C2C)cc1
IC50 (Nonstructural protein 1): 12.6 µM (active) | IC50 (Prothrombin): 49.9 µM (active) | AC50 [5]: 6.6 µM (active) | IC50 (Aminopeptidase N): 42.6 µM (active) | IC50 (Large T antigen): 54.1 µM (active) | EC50 (Protein RecA): 2.08 µM (active) | IC50 [6]: 96 µM (active) | IC50 [7]: 32.8 µM (inactive) | IC50 [8]: 49.4 µM (active) | CC50 [9]: 25.6 µM (active)

COC(=O)C1=C(C)N(Cc2ccc(F)cc2)C(=S)NC1c1cccc(F)c1 (stereo unspecified)
AC50 [10]: > 52 µM (inactive) | AC50 (Cryptococcus neoformans): 36.7 µM (active)

Cc1ccc2nc(-c3ccccc3)cc(NCCCN3CCCCC3)c2c1
IC50 [11]: > 80 µM (inactive) | IC50 [12]: > 80 µM (inactive)

CN(C)CCNc1ccc(CO)c2oc3ccc(O)cc3c(=O)c12
IC50 [13]: 128 µM (active) | IC50 [14]: 21.6 µM (inactive) | AC50 [15]: 8.03 µM (active) | AC50 [16]: 2.51 µM (active) | CC50 [17]: 50.8 µM (active) | IC50 [18]: 14.1 µM (active) | EC50 (Transthyretin): > 167 µM (inactive)
